For two compounds, Activity and IC50 results are on record in ChEMBL document CHEMBL1150823, “Two bioactive saponins from Albizia subdimidiata from the Suriname rainforest” (J Nat Prod, 2001).

The test system of assay [1] is Saccharomyces cerevisiae. Nature of the assay: DNA damaging activity against Saccharomyces cerevisiae 1140 assessed as concentration required to produce 12 mm zone of inhibition. The format is functional.
The test system of assay [2] is Saccharomyces cerevisiae. Briefly: DNA damaging activity against Saccharomyces cerevisiae 1138 assessed as concentration required to produce 12 mm zone of inhibition. It is filed as functional.
Assay [3] deals with Saccharomyces cerevisiae. Nature of the assay: DNA damaging activity against Saccharomyces cerevisiae Sc7 assessed as concentration required to produce 12 mm zone of inhibition. It is filed as functional.
The test system of a further assay is A2780. Briefly: Cytotoxicity against human A2780 cells. It is filed as functional, cell-based.
Assay [4] deals with Saccharomyces cerevisiae. Briefly: DNA damaging activity against Saccharomyces cerevisiae 1353 assessed as concentration required to produce 12 mm zone of inhibition. The format is functional.

Molecules are shown by their SMILES. In brackets after ≈: the same amount, converted by molar mass.

In the case of `CC(=O)N[C@H]1[C@H](O[C@H]2CC[C@]3(C)[C@H]4CC=C5[C@@H]6CC(C)(C)CC[C@]6(C(=O)O)CC[C@@]5(C)[C@]4(C)CC[C@H]3C2(C)C)O[C@H](CO[C@@H]2OC[C@H](O)[C@H](O)[C@H]2O[C@@H]2OC[C@H](O)[C@H](O)[C@H]2O)[C@@H](O)[C@@H]1O`, the Activity in the assay on Saccharomyces cerevisiae [1] was determined as 40 µg/mL; in the assay on Saccharomyces cerevisiae [2], 25 µg/mL; with Saccharomyces cerevisiae [3], 45 µg/mL; with Saccharomyces cerevisiae [4], 30 µg/mL. Besides, 0.8 µg/mL (≈ 0.866 µM) corresponded to half-maximal inhibition in the assay with A2780 (IC50).

Regarding `CC(=O)N[C@H]1[C@H](O[C@H]2CC[C@]3(C)[C@H]4CC=C5[C@@H]6CC(C)(C)CC[C@]6(C(=O)O)CC[C@@]5(C)[C@]4(C)CC[C@H]3C2(C)C)O[C@H](CO[C@@H]2OC[C@H](O)[C@H](O)[C@H]2O[C@@H]2OC[C@@H](O)[C@H](O)[C@H]2O)[C@@H](O)[C@@H]1O` [ALBIZIATRIOSIDE A], the Activity in the assay on Saccharomyces cerevisiae [1] worked out at 35 µg/mL; with Saccharomyces cerevisiae [2], 30 µg/mL; with Saccharomyces cerevisiae [3] it was 30 µg/mL; in the assay on Saccharomyces cerevisiae [4], 35 µg/mL. In addition, the IC50 (as a rule, the concentration needed to halve the response being measured) with A2780 was 0.9 µg/mL (≈ 0.974 µM).
